We go through 19 compounds from patent US9656962B2, “Ring-contracted morphinans and the use thereof” (Purdue Pharma L.P., priority 2013, dated 2017).

One may read the Emax as the maximal effect, on the per cent scale that the assay sets. As usually defined, the EC50 is the concentration that produces a half-maximal response. Read a low EC50 as greater potency.

The target in this assay is μ-opioid receptor (Homo sapiens (Human), UniProt P35372). Nature of the assay: μ-opioid receptor [35S]GTPγS functional assay, HEK-293 cells (Table 6). It counts as biochemical. The note with it: for EC50: μ GTP. On the procedure: μ-Opioid Receptor Functional Assay Procedures: [^35S]GTPγS functional assays were conducted using freshly thawed μ-receptor membranes prepared in-house from a cell line expressing recombinant μ opioid receptor in a HEK-293, CHO or U-2 OS cell background, or purchased from a commercial source (Perkin Elmer, Shelton, Conn.; or DiscovRx, Fremont, Calif.). Assay reactions were prepared by sequentially adding the following reagents to binding buffer (100 mM NaCl, 10 mM MgCl2, 20 mM HEPES, pH 7.4) on ice (final concentrations indicated): membrane protein (0.026 mg/mL), saponin ([…]), GDP ([…]) and [^35S]GTPγS (0.20 nM; Perkin Elmer, Shelton, Conn.). The prepared membrane solution (190 μl/well) was transferred to 96-shallow well polypropylene plates containing 10 μl of 20× concentrated stock solutions of the agonist [D-Ala^2, N-methyl-Phe^4 Gly-ol^5]-enkephalin (DAMGO) prepared in dimethyl sulfoxide (DMSO). Plates were incubated for 30 min at about 25° C. with shaking Reactions were terminated by rapid filtration onto 96-well Unifilter GF/B filter plates (Perkin Elmer, Shelton, Conn.) using a 96-well tissue harvester (Perkin Elmer, Shelton, Conn.) followed by three filtration washes with 200 μl of ice-cold wash buffer (10 mM NaH2PO4, 10 mM Na2HPO4, pH 7.4). Filter plates were subsequently dried at 50° C. for 2-3 hours. BetaScint scintillation cocktail (Perkin Elmer, Shelton, Conn.) was added (50 μl/well) and plates were counted using a Packard Top-Count for 1 min/well. Data were analyzed using the sigmoidal dose-response curve fitting functions in GraphPad PRISM v. 3.0, or an in-house function for non-linear, sigmoidal dose-response curve-fitting. [^35S]GTPγS functional assays can also be conducted using freshly thawed μ-receptor membranes prepared from a cell line expressing recombinant μ opioid receptor in a CHO-K1 cell background.
μ GTP Emax (%) is the maximal effect elicited by a compound relative to the effect elicited by DAMGO, a standard μ agonist. Generally, the μ GTP Emax (%) value measures the efficacy of a compound to treat or prevent pain or other Conditions.
The following TABLE 6 provides results on the activity response of certain Compounds of the Invention at the μ- and κ-opioid receptors determined as described above using HEK-293 cells.

In the case of `Cc1ccc(CNC(=O)[C@H]2C[C@]34CCN(CC5CC5)[C@H](Cc5ccc(C(N)=O)cc53)[C@]4(O)C2)cc1` [Compound 116, (2S,3aS,4R,9bS)-12-(cyclopropylmethyl)-3a-hydroxy-N^2-(4-methylbenzyl)-1,2,3,3a,4,5-hexahydro-4,9b-(epimino-ethano)cyclopenta[a]naphthalene-2,8-dicarboxamide], the EC50 worked out at 0.00345 ± 0.00016 µM. For the same compound, the Emax (relative to DAMGO) was 23.6 ± 1.05%.
As to `Cc1ccc(CNC(=O)[C@@H]2C[C@]34CCN(CC5CC5)[C@H](Cc5ccc(O)cc53)[C@]4(O)C2)cc1Cl` [Compound 126, (2R,3aS,4R,9bS)-N-(3-chloro-4-methylbenzyl)-12-(cyclopropylmethyl)-3a,8-dihydroxy-1,2,3,3a,4,5-hexahydro-4,9b-(epiminoethano)cyclopenta-[a]naphthalene-2-carboxamide], the Emax (relative to DAMGO) was -1%. For the same compound, the EC50 (bound given in μM) was more than 20 µM.
Consider “(2R,3aS,4R,9bS)-N-(2-chlorobenzyl)-12- (cyclopropylmethyl)-3a,8-dihydroxy- 1,2,3,3a,4,5-hexahydro-4,9b-(epimino- ethano)cyclopenta[a]naphthalene-2- carboxamide [Compound 148]”, for which the “μ Emax (%)” value (relative to DAMGO) was determined as 1.00%. This compound displayed an EC50 (bound given in μM) of more than 20 µM.
In turn, `CN1CC[C@]23C[C@@H](C(=O)NCCO)C[C@@]2(O)[C@H]1Cc1ccc(O)cc13` [Compound 114, (2R,3aS,4R,9bS)-3a,8-dihydroxy-N-(2-hydroxyethyl)-12-methyl-1,2,3,3a,4,5-hexahydro-4,9b-(epiminoethano)cyclo-penta[a]naphthalene-2-carboxamide] yielded a 50% effective concentration (EC50) of 8.44 ± 1.54 µM. In addition, for the setting “relative to DAMGO”, the Emax came out at 23 ± 1.54%.
For `O=C(NCc1ccc(O)c(Cl)c1)[C@@H]1C[C@]23CCN(CC4CC4)[C@H](Cc4ccc(O)cc42)[C@]3(O)C1` [Compound 128, (2R,3aS,4R,9bS)-N-(3-chloro-4-hydroxybenzyl)-12-(cyclopropylmethyl)-3a,8-dihydroxy-1,2,3,3a,4,5-hexahydro-4,9b-(epiminoethano)cyclopenta-[a]naphthalene-2-carboxamide], under “relative to DAMGO”, the Emax is -1%. Also, the half-maximal effective concentration (EC50) (bound given in μM) was more than 20 µM.
The compound `O=C(NCCN1CCCCC1)[C@H]1C[C@]23CCN(CC4CC4)[C@H](Cc4ccc(O)cc42)[C@]3(O)C1` [Compound 133, (2S,3aS,4R,9bS)-12-(cyclopropylmethyl)-3a,8-dihydroxy-N-(2-(piperidin-1-yl)ethyl)-1,2,3,3a,4,5-hexahydro-4,9b-(epiminoethano)cyclopenta[a]naphthalene-2-carboxamide] yielded an EC50 of 0.0142 ± 0.00373 µM. For the same compound, where the note is “relative to DAMGO”, the Emax amounted to 29.8 ± 1.22%.
Take `O=C(NCc1ccc(Cl)cc1F)[C@@H]1C[C@]23CCN(CC4CC4)[C@H](Cc4ccc(O)cc42)[C@]3(O)C1` [Compound 136, (2R,3aS,4R,9bS)-N-(4-chloro-2-fluorobenzyl)-12-(cyclopropylmethyl)-3a,8-dihydroxy-1,2,3,3a,4,5-hexahydro-4,9b-(epiminoethano)cyclopenta-[a]naphthalene-2-carboxamide]: the Emax (relative to DAMGO) is -0.33 ± 0.67%. The compound also yielded an EC50 (bound given in μM) of more than 20 µM.
`O=C(NCc1ccc(F)cc1F)[C@H]1C[C@]23CCN(CC4CC4)[C@H](Cc4ccc(O)cc42)[C@]3(O)C1` [Compound 146, (2S,3aS,4R,9bS)-12-(cyclopropylmethyl)-N-(2,4-difluorobenzyl)-3a,8-dihydroxy-1,2,3,3a,4,5-hexahydro-4,9b-(epimino-ethano)cyclopenta[a]naphthalene-2-carboxamide]: the EC50 was 0.00222 ± 0.00041 µM. Further, the Emax (relative to DAMGO) was determined as 28.3 ± 1.13%.
Regarding `O=C(NCc1cc(Cl)ccc1Cl)[C@@H]1C[C@]23CCN(CC4CC4)[C@H](Cc4ccc(O)cc42)[C@]3(O)C1` [Compound 151, (2R,3aS,4R,9bS)-12-(cyclopropylmethyl)-N-(2,5-dichlorobenzyl)-3a,8-dihydroxy-1,2,3,3a,4,5-hexahydro-4,9b-(epimino-ethano)cyclopenta[a]naphthalene-2-carboxamide], the Emax (relative to DAMGO) was -1%. Moreover, under “bound given in μM”, the EC50 is more than 20 µM.
In the case of `O=C(NCc1ccc(O)cc1Cl)[C@@H]1C[C@]23CCN(CC4CC4)[C@H](Cc4ccc(O)cc42)[C@]3(O)C1` [Compound 127, (2R,3aS,4R,9bS)-N-(2-chloro-4-hydroxybenzyl)-12-(cyclopropylmethyl)-3a,8-dihydroxy-1,2,3,3a,4,5-hexahydro-4,9b-(epiminoethano)cyclopenta-[a]naphthalene-2-carboxamide], the Emax (relative to DAMGO) was -1%. This compound registered an EC50 (bound given in μM) of more than 20 µM.
As for `Cc1c(Cl)cccc1CNC(=O)[C@@H]1C[C@]23CCN(CC4CC4)[C@H](Cc4ccc(O)cc42)[C@]3(O)C1` [Compound 125, (2R,3aS,4R,9bS)-N-(3-chloro-2-methylbenzyl)-12-(cyclopropylmethyl)-3a,8-dihydroxy-1,2,3,3a,4,5-hexahydro-4,9b-(epiminoethano)cyclopenta-[a]naphthalene-2-carboxamide], under “relative to DAMGO”, the Emax was -1%. Under “bound given in μM”, this compound returned an EC50 of more than 20 µM.
`NC(=O)c1ccc2c(c1)[C@]13CCN(CC4CC4)[C@H](C2)[C@]1(O)C[C@H](C(=O)NCCN1CCOCC1)C3` [Compound 118, (2R,3aS,4R,9bS)-12-(cyclopropylmethyl)-3a-hydroxy-N^2-(2-morpholinoethyl)-1,2,3,3a,4,5-hexahydro-4,9b-(epimino-ethano)cyclopenta[a]naphthalene-2,8-dicarboxamide]: the EC50 turned out to be 0.175 ± 0.0099 µM. The Emax (relative to DAMGO) came out at 13.2 ± 1.17%.
As to `CC(C)N1CCN(C(=O)[C@@H]2C[C@]34CCN(CC5CC5)[C@H](Cc5ccc(O)cc53)[C@]4(O)C2)CC1` [Compound 132, ((2R,3aS,4R,9bS)-12-(cyclopropylmethyl)-3a,8-dihydroxy-1,2,3,3a,4,5-hexahydro-4,9b-(epiminoethano)cyclopenta-[a]naphthalen-2-yl)(4-isopropylpiperazin-1-yl)methanone], the Emax (relative to DAMGO) is -1%. Moreover, the EC50 (bound given in μM) was more than 20 µM.
As to `C[C@@H]1CN(CCNC(=O)[C@@H]2C[C@]34CCN(CC5CC5)[C@H](Cc5ccc(O)cc53)[C@]4(O)C2)C[C@H](C)O1` [Compound 134, (2R,3aS,4R,9bS)-12-(cyclopropylmethyl)-N-(2-((2S,6R)-2,6-dimethylmorpholino)-ethyl)-3a,8-dihydroxy-1,2,3,3a,4,5-hexahydro-4,9b-(epiminoethano)-cyclopenta[a]naphthalene-2-carboxamide], the EC50 was determined as 0.092 ± 0.0197 µM. Also, the Emax (relative to DAMGO) was 9.53 ± 0.9%.
`Cc1c(Cl)cccc1CNC(=O)[C@H]1C[C@]23CCN(CC4CC4)[C@H](Cc4ccc(O)cc42)[C@]3(O)C1` [Compound 138, (2S,3aS,4R,9bS)-N-(3-chloro-2-methylbenzyl)-12-(cyclopropylmethyl)-3a,8-dihydroxy-1,2,3,3a,4,5-hexahydro-4,9b-(epiminoethano)cyclopenta-[a]naphthalene-2-carboxamide] had an EC50 of 0.00071 ± 6.8e-05 µM. Further, the Emax (relative to DAMGO) turned out to be 52.4 ± 1.72%.
`CN1CC[C@]23C[C@@H](C(=O)NCCN4CCOCC4)C[C@@]2(O)[C@H]1Cc1ccc(O)cc13` [Compound 112, (2R,3aS,4R,9bS)-3a,8-dihydroxy-12-methyl-N-(2-morpholinoethyl)-1,2,3,3a,4,5-hexahydro-4,9b-(epimino-ethano)cyclopenta[a]naphthalene-2-carboxamide]: the EC50 was 10.2 ± 0.241 µM. Further, the Emax (relative to DAMGO) amounted to 38.8 ± 1.54%.
`O=C(NCCc1ccc(Cl)cc1Cl)[C@@H]1C[C@]23CCN(CC4CC4)[C@H](Cc4ccc(O)cc42)[C@]3(O)C1` [Compound 130, (2R,3aS,4R,9bS)-12-(cyclopropylmethyl)-N-(2,4-dichlorophenethyl)-3a,8-dihydroxy-1,2,3,3a,4,5-hexahydro-4,9b-(epiminoethano)cyclopenta[a]naphthalene-2-carboxamide]: the Emax (relative to DAMGO) was determined as 0%. Moreover, the EC50 (bound given in μM) is more than 20 µM.
Taken in the same sequence, the figures for `O=C(NCc1cc(Cl)cc(Cl)c1)[C@@H]1C[C@]23CCN(CC4CC4)[C@H](Cc4ccc(O)cc42)[C@]3(O)C1` [Compound 150, (2R,3aS,4R,9bS)-12-(cyclopropylmethyl)-N-(3,5-dichlorobenzyl)-3a,8-dihydroxy-1,2,3,3a,4,5-hexahydro-4,9b-(epimino-ethano)cyclopenta[a]naphthalene-2-carboxamide] were -1% and more than 20 µM.
Compound `CN1CC[C@]23C[C@@H](C(=O)NCc4ccc(O)cc4O)C[C@@]2(O)[C@H]1Cc1ccc(O)cc13` [Compound 98, (2R,3aS,4R,9bS)-N-(2,4-dihydroxy-benzyl)-3a,8-dihydroxy-12-methyl-1,2,3,3a,4,5-hexahydro-4,9b-(epiminoethano)cyclopenta[a]naphthalene-2-carboxamide] gave a concentration giving a half-maximal response (EC50) of 1.29 ± 0.223 µM. The Emax (relative to DAMGO) came out at 26.7 ± 0.67%.
